The results in this text go back to ChEMBL document CHEMBL3627608, “Crystal structures of human RIP2 kinase catalytic domain complexed with ATP-competitive inhibitors: Foundations for understanding inhibitor selectivity” (Bioorg Med Chem, 2015).

SMILES strings stand for the structures.

Assay [1] deals with T1, Serine/threonine-protein kinase LATS1 (Homo sapiens) (UniProt O95835).
T1 sequence (whole entry): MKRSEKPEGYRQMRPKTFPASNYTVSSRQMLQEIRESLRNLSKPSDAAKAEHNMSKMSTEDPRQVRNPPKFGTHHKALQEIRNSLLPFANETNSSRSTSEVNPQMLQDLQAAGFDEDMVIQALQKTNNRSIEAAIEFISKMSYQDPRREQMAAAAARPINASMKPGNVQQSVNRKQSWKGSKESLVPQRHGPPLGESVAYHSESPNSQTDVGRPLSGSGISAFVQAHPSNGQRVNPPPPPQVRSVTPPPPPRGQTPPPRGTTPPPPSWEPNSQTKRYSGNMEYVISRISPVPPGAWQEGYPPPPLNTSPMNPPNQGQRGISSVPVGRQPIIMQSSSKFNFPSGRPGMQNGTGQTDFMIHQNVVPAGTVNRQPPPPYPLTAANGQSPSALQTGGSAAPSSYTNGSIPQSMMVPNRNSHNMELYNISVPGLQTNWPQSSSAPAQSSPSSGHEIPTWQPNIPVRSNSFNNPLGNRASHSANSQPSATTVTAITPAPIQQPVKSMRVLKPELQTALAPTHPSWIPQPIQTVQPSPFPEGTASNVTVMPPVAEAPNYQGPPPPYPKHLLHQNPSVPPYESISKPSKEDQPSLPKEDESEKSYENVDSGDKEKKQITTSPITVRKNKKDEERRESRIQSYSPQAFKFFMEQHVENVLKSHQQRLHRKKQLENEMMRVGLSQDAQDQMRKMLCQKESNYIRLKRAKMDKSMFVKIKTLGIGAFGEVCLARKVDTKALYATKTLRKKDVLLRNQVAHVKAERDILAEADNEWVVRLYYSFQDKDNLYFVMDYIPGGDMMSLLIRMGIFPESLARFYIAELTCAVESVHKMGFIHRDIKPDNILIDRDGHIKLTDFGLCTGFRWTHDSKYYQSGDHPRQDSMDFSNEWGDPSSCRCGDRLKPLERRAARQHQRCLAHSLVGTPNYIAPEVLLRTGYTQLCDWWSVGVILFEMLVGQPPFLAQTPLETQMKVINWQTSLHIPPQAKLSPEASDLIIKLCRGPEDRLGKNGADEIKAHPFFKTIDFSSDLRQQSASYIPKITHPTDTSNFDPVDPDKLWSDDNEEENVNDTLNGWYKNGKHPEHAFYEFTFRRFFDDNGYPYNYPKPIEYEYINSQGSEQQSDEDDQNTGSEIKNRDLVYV
Nature of the assay: Inhibition of LATS (unknown origin) at 10 uM after 120 mins P33 radiolabeled kinase activity assay.

In assay [2] the target is T2, Serine/threonine-protein kinase STK11 (Homo sapiens) (UniProt Q15831).
T2 sequence (whole entry): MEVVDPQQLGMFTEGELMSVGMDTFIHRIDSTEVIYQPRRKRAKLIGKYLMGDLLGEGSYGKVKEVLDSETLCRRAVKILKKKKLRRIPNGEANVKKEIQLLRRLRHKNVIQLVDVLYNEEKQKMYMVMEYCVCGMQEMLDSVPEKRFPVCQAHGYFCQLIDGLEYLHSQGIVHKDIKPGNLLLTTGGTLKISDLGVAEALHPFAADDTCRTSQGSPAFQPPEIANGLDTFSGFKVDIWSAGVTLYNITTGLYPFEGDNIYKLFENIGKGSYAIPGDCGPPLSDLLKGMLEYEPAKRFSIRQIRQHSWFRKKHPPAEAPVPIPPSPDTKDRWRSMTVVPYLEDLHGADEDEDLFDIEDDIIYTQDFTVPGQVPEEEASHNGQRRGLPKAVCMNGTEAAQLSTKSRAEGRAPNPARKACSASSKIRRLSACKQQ
The experiment in a line: Inhibition of LKB1 (unknown origin) at 10 uM after 120 mins P33 radiolabeled kinase activity assay.

Assay [3] deals with STE20-like serine/threonine-protein kinase (Homo sapiens) (UniProt Q9H2G2). The experiment in a line: Inhibition of SLK (unknown origin) at 10 uM after 120 mins P33 radiolabeled kinase activity assay.
Assay [4] deals with T3, Serine/threonine-protein kinase A-Raf (Homo sapiens) (UniProt P10398).
T3 sequence (whole entry): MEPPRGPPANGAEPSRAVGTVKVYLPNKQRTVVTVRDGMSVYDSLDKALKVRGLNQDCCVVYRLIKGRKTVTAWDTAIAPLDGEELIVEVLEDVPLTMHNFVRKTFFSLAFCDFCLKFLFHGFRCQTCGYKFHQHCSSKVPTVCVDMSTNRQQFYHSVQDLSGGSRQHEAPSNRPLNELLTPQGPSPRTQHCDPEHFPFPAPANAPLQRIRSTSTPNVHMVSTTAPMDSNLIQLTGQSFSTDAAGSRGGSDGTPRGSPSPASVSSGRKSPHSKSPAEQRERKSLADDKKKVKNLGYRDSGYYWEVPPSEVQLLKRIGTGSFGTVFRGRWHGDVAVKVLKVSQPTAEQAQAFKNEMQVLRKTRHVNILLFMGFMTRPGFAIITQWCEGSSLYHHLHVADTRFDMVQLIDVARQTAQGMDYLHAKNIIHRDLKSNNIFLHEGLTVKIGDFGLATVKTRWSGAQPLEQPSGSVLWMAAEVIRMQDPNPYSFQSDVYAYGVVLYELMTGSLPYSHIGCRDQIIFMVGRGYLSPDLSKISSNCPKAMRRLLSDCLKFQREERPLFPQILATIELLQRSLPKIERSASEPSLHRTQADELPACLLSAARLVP
Nature of the assay: Inhibition of ARAF (unknown origin) at 10 uM after 120 mins P33 radiolabeled kinase activity assay.

Assay [5] addresses Proto-oncogene tyrosine-protein kinase Src (Homo sapiens) (UniProt P12931). The experiment in a line: Inhibition of c-Src (unknown origin) at 10 uM after 120 mins P33 radiolabeled kinase activity assay.
The target in assay [6] is CDK6/cyclin D3 (Homo sapiens) (UniProt P30281+Q00534). The experiment in a line: Inhibition of CDK6/cyclin D3 (unknown origin) at 10 uM after 120 mins P33 radiolabeled kinase activity assay. The format is protein-complex assay.
Assay [7] deals with Dual specificity protein kinase CLK3 (Homo sapiens) (UniProt P49761). Nature of the assay: Inhibition of CLK3 (unknown origin) at 10 uM after 120 mins P33 radiolabeled kinase activity assay.
The target of assay [8] is Tyrosine-protein kinase CSK (Homo sapiens) (UniProt P41240). Nature of the assay: Inhibition of CSK (unknown origin) at 10 uM after 120 mins P33 radiolabeled kinase activity assay.
Chain of Tyrosine-protein kinase CSK (Homo sapiens) (P41240 2-450 limits assumed): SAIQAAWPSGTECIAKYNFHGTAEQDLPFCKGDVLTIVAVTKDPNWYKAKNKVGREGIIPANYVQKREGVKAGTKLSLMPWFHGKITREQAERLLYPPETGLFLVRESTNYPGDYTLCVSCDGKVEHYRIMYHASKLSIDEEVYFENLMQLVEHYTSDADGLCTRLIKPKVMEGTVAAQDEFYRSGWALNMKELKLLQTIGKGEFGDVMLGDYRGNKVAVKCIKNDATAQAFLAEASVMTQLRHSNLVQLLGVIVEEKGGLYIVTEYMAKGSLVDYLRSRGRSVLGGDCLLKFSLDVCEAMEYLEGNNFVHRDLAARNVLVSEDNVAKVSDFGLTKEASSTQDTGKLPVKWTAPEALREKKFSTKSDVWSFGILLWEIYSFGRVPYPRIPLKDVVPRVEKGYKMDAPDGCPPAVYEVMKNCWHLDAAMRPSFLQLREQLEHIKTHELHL

Chain of Proto-oncogene tyrosine-protein kinase Src (Homo sapiens) (P12931 2-536 limits assumed): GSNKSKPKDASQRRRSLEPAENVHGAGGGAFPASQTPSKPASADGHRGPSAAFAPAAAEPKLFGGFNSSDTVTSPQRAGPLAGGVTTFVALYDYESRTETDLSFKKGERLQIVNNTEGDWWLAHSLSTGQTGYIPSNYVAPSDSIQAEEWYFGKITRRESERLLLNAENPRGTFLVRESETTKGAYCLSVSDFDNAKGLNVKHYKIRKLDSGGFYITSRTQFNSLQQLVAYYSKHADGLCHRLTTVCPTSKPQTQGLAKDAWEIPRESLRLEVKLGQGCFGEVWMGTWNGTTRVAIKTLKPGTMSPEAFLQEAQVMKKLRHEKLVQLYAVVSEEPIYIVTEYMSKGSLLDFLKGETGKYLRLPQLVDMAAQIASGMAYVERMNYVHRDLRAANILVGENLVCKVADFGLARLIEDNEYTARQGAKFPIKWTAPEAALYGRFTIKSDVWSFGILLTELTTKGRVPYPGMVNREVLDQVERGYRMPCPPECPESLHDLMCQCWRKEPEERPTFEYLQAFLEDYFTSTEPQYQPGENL
Chain of STE20-like serine/threonine-protein kinase (Homo sapiens) (Q9H2G2 whole entry, looked up): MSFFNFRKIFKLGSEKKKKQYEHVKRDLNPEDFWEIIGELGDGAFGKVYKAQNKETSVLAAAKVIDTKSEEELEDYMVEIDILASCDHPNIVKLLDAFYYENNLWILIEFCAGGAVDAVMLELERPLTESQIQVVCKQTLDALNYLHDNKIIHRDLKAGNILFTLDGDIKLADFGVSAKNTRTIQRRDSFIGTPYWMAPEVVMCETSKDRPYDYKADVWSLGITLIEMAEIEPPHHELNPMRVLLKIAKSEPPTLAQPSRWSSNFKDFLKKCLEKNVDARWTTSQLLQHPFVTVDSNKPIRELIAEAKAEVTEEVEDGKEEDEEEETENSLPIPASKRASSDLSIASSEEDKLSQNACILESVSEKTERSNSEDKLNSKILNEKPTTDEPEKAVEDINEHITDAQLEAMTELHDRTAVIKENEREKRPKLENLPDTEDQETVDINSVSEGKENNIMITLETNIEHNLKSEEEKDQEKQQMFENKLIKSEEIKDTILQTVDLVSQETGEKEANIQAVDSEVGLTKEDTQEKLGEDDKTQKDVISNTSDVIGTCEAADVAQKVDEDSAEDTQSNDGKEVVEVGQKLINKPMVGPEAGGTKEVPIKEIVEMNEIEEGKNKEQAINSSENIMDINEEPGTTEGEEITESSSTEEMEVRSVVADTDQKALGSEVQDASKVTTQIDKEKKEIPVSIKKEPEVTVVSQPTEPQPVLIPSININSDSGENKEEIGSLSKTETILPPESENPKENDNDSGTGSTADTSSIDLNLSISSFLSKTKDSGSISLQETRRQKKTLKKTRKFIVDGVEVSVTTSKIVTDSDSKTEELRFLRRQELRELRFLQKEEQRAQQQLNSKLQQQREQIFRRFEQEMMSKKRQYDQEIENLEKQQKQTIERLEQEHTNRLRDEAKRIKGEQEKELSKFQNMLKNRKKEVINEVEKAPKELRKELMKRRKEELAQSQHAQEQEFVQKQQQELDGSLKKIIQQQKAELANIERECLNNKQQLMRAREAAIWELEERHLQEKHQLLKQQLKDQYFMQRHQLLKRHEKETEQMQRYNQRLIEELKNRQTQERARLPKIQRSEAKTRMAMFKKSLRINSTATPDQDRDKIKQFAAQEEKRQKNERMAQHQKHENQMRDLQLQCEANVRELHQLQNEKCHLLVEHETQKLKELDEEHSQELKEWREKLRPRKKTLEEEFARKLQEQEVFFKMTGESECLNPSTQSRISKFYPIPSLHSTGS
Chain of Dual specificity protein kinase CLK3 (Homo sapiens) (P49761 whole entry, looked up): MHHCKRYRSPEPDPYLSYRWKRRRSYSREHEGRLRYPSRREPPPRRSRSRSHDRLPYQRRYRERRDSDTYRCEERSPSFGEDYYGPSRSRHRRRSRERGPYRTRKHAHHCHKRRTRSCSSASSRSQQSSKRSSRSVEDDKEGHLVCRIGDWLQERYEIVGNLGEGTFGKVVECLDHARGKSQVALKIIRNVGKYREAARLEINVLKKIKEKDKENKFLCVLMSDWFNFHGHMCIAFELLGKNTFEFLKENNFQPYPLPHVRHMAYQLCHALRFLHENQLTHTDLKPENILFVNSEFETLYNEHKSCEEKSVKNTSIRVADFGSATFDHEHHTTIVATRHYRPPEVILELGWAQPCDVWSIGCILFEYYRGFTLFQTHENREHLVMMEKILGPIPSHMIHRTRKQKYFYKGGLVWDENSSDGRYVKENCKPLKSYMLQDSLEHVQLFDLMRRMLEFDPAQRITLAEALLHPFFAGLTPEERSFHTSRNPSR

In the case of `CS(=O)(=O)c1cccc(Nc2nccc(-c3sc(N4CCOCC4)nc3-c3cccc(NS(=O)(=O)c4c(F)cccc4F)c3)n2)c1`, the inhibition was 11% in assay [1]; 46.2% in assay [2]; 86% in assay [3]; 97.7% in assay [4]; 99.1% in assay [5]; 83.8% in assay [6]. For the same compound, the figures for the inhibition in assay [7] and in assay [8] were 36.7% and 100%, respectively.

With `CC(C)(C)c1cc(NC(=O)Nc2ccc(Oc3ccncc3)cc2)no1`, the inhibition in assay [1] worked out at 9.91%; in assay [2], 3.9%; in assay [3], 73%; in assay [4], 96.2%; in assay [5] it was 85.8%; in assay [6], 43.8%. For the same compound, the inhibition in assay [7] amounted to 9.12%; in assay [8] it was 78.4%.

`COCCNC(=O)c1ccc2c(c1)nc(-c1cnc(-c3ccc(Cl)cc3)[nH]1)n2CCOC`: the inhibition in assay [1] is 3.53%; in assay [2], 3.09%; in assay [3], 31.2%; in assay [4], 75.8%; in assay [5], 81.1%; in assay [6], 5.8%. Moreover, the inhibition in assay [7] is 5.68%; in assay [8], 15.6%.
